Source: PubChem BioAssay AID1919009 (Molecular Pharmacology Branch, DTP, NCI, 2023)

Test system: K24384-001-R-PDC complex spheroid growth
Experiment: Anticancer human tumor K24384-001-R-PDC patient-derived pancreatic adenocarcinoma cell line growth inhibition [AhR]
Conditions: for IC50: curve of first compound; for viability, T/C: stronger effect = lower value
Summary of the method: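 Spheroids combined tumor cells with HUVEC endothelial cells and human MSCs as stroma. AhR antagonists were paired with standard or investigational drugs, each dosed in half-log steps down from near clinical Cmax, or from 10 microM where Cmax was unknown.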

[1] = second compound 0.1 µM, first compound 0.00949 µM
[2] = second compound 0.1 µM, first compound 0.03 µM
[3] = second compound 0.1 µM, first compound 0.0949 µM
[4] = second compound 0.1 µM, first compound 0.3 µM
[5] = second compound 0.316 µM, first compound 0.00949 µM
[6] = second compound 0.316 µM, first compound 0.03 µM
[7] = second compound 0.316 µM, first compound 0.0949 µM
[8] = second compound 0.316 µM, first compound 0.3 µM
[9] = second compound 1 µM, first compound 0.00949 µM
[10] = second compound 1 µM, first compound 0.03 µM
[11] = second compound 1 µM, first compound 0.0949 µM
[12] = second compound 1 µM, first compound 0.3 µM
[13] = second compound 3.16 µM, first compound 0.00949 µM
[14] = second compound 3.16 µM, first compound 0.03 µM
[15] = second compound 3.16 µM, first compound 0.0949 µM
[16] = second compound 3.16 µM, first compound 0.3 µM
[17] = second compound 10 µM, first compound 0.00949 µM
[18] = second compound 10 µM, first compound 0.03 µM
[19] = second compound 10 µM, first compound 0.0949 µM
[20] = second compound 10 µM, first compound 0.3 µM
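Wherever viability, T/C is given: percent of DMSO vehicle-treated spheroid viability set as 100%.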

| Structure (SMILES) | IC50 (second compound 0.1 µM) | IC50 (second compound 0.316 µM) | IC50 (second compound 1 µM) | IC50 (second compound 3.16 µM) | IC50 (second compound 10 µM) | viability, T/C [1] | viability, T/C [2] | viability, T/C [3] | viability, T/C [4] | viability, T/C [5] | viability, T/C [6] | viability, T/C [7] | viability, T/C [8] | viability, T/C [9] | viability, T/C [10] | viability, T/C [11] | viability, T/C [12] | viability, T/C [13] | viability, T/C [14] | viability, T/C [15] | further results |
| --- | --- | --- | --- | --- | --- | --- | --- | --- | --- | --- | --- | --- | --- | --- | --- | --- | --- | --- | --- | --- | --- |
| CCN(c1cc(-c2ccc(CN3CCOCC3)cc2)cc(C(=O)NCc2c(C)cc(C)[nH]c2=O)c1C)C1CCOCC1 + Cc1ccccc1N=Nc1ccc(NC(=O)c2ccnn2C)c(C)c1 | > 3000 nM | > 3000 nM | > 3000 nM | > 3000 nM | > 3000 nM | 116% | 114% | 124% | 113% | 131% | 126% | 135% | 112% | 119% | 134% | 131% | 106% | 109% | 117% | 116% | viability, T/C (second compound 0.1 µM, first compound 0.949 µM): 80%; viability, T/C (second compound 0.1 µM, first compound 3 µM): 125%; viability, T/C (second compound 0.316 µM, first compound 0.949 µM): 106%; viability, T/C (second compound 0.316 µM, first compound 3 µM): 91.2%; viability, T/C (second compound 1 µM, first compound 0.949 µM): 87.3%; viability, T/C (second compound 1 µM, first compound 3 µM): 87.8%; viability, T/C [16]: 107%; viability, T/C (second compound 3.16 µM, first compound 0.949 µM): 130%; viability, T/C (second compound 3.16 µM, first compound 3 µM): 105%; viability, T/C [17]: 141%; viability, T/C [18]: 138%; viability, T/C [19]: 147%; viability, T/C [20]: 137%; viability, T/C (second compound 10 µM, first compound 0.949 µM): 128%; viability, T/C (second compound 10 µM, first compound 3 µM): 110% |
| Nc1ncn(C2CC(O)C(CO)S2)c(=O)n1 (stereo not given) + Cc1ccccc1N=Nc1ccc(NC(=O)c2ccnn2C)c(C)c1 | > 300 nM | > 300 nM | > 300 nM | > 300 nM | > 300 nM | 105% | 79.3% | 66% | 57.8% | 88.4% | 66.2% | 65.8% | 54.5% | 68.7% | 78.9% | 61.5% | 58% | 92.6% | 63.5% | 53.1% | viability, T/C (second compound 0.1 µM, first compound 0.000949 µM): 92.5%; viability, T/C (second compound 0.1 µM, first compound 0.003 µM): 103%; viability, T/C (second compound 0.316 µM, first compound 0.000949 µM): 111%; viability, T/C (second compound 0.316 µM, first compound 0.003 µM): 99.7%; viability, T/C (second compound 1 µM, first compound 0.000949 µM): 99.3%; viability, T/C (second compound 1 µM, first compound 0.003 µM): 82%; viability, T/C (second compound 3.16 µM, first compound 0.000949 µM): 86.6%; viability, T/C (second compound 3.16 µM, first compound 0.003 µM): 83.3%; viability, T/C [16]: 46.9%; viability, T/C (second compound 10 µM, first compound 0.000949 µM): 100%; viability, T/C (second compound 10 µM, first compound 0.003 µM): 103%; viability, T/C [17]: 87.4%; viability, T/C [18]: 82.8%; viability, T/C [19]: 72.4%; viability, T/C [20]: 60.7% |
